The source of these data is patent publication US9670227B2, “Thienopyrimidine derivatives, a process for their preparation and pharmaceutical compositions containing them” (LES LABORATOIRES SERVIER, priority 2013, dated 2017).

Read-outs that look alike come from different tables or passages of the source.

In test [1] the test system is H929 multiple myeloma tumour line. The test can be described thus: In vitro cytotoxicity, Microculture Tetrazolium Assay. The settings on record: H929 cells, 48 hours exposure, MTT, read-out: IC50 (μM) MTT H929. In kind it is cell-based. Here is the method: The cytotoxicity studies were carried out on the H929 multiple myeloma tumour line.
The cells are distributed onto microplates and exposed to the test compounds for 48 hours.

The target of the next test is Mcl-1 protein (UniProtKB primary accession number: Q07820) (Homo sapiens, UniProt Q07820). In words: Inhibition of Mcl-1 by fluorescence polarisation, Method 1. The format is binding. To be noted: fluorescence polarisation; Method 1, or Method 2; read-out: IC50 (M) Mcl-1 FP. In outline: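 Binding was measured as fluorescence polarisation of a fluorescein-labelled ligand (1 nM) displaced from Mcl-1 (5 nM), both final. Compounds ran as 11-point series with final DMSO at 5%.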
Mcl-1 protein, sequence (Q07820 whole entry): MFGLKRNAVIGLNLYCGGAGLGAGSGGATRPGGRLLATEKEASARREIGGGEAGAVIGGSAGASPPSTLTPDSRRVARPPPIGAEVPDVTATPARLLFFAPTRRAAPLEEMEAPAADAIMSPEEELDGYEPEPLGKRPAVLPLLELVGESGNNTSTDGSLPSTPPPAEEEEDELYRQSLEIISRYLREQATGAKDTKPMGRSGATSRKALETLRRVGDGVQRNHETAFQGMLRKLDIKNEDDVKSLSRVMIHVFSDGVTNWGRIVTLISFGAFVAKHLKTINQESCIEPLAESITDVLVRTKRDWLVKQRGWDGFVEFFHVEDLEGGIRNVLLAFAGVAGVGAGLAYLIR

As to `Cc1c(-c2c(Br)sc3ncnc(OC(Cc4ccccc4)C(=O)O)c23)ccc(OCCN2CCN(C)CC2)c1Cl` [Example 518, (2R)-2-[(6-bromo-(5Sa)-5-{3-chloro-2-methyl-4-[2-(4-methylpiperazin-1-yl)ethoxy]phenyl}thieno[2,3-d]pyrimidin-4-yl)oxy]-3-phenylpropanoic acid], the IC50 was 9.18 µM in test [1] (Homo sapiens, NCI-H929, 48 h) and 3.5e-08 M on Mcl-1 protein.

Take `COc1ccccc1CC(Oc1ncnc2sc(-c3cc(F)c(F)c(F)c3)c(-c3ccc(OCCN4CCN(C)CC4)c(Cl)c3C)c12)C(=O)O` [Example 523, (2R)-2-{[(5Sa)-5-{3-chloro-2-methyl-4-[2-(4-methylpiperazin-1-yl)ethoxy]phenyl}-6-(3,4,5-trifluorophenyl)thieno[2,3-d]pyrimidin-4-yl]oxy}-3-(2-methoxyphenyl)propanoic acid]: the half-inhibitory concentration (IC50) came out at 0.532 µM in test [1] (Homo sapiens, NCI-H929, 48 h) and 1.8e-09 M at Mcl-1 protein.

With `COc1ccccc1CC(Oc1ncnc2sc(-c3cc(F)c(F)c(OC)c3)c(-c3ccc(OCCN4CCN(C)CC4)c(Cl)c3C)c12)C(=O)O` [Example 524, (2R)-2-{[(5Sa)-5-{3-chloro-2-methyl-4-[2-(4-methylpiperazin-1-yl)ethoxy]phenyl}-6-(3,4-difluoro-5-methoxyphenyl)thieno[2,3-d]pyrimidin-4-yl]oxy}-3-(2-methoxyphenyl)propanoic acid], the IC50 in test [1] (Homo sapiens, NCI-H929, 48 h) is 0.417 µM; on Mcl-1 protein, 3.1e-08 M.

In the case of `COc1ccccc1CC(Oc1ncnc2sc(-c3cc(F)c(F)c(F)c3F)c(-c3ccc(OCCN4CCN(C)CC4)c(Cl)c3C)c12)C(=O)O` [Example 525, (2R)-2-{[(5Sa)-5-{3-chloro-2-methyl-4-[2-(4-methylpiperazin-1-yl)ethoxy]phenyl}-6-(2,3,4,5-tetrafluorophenyl)thieno[2,3-d]pyrimidin-4-yl]oxy}-3-(2-methoxyphenyl)propanoic acid], the IC50 came to 0.755 µM in test [1] (Homo sapiens, NCI-H929, 48 h) and 3.3e-09 M at Mcl-1 protein.

`COc1ccccc1CC(Oc1ncnc2sc(-c3cc(F)cc(Cl)c3)c(-c3ccc(OCCN4CCN(C)CC4)c(Cl)c3C)c12)C(=O)O` [Example 526, (2R)-2-{[6-(3-chloro-5-fluorophenyl)-(5Sa)-5-{3-chloro-2-methyl-4-[2-(4-methylpiperazin-1-yl)ethoxy]phenyl}thieno[2,3-d]pyrimidin-4-yl]oxy}-3-(2-methoxyphenyl)propanoic acid]: the IC50 in test [1] (Homo sapiens, NCI-H929, 48 h) is 0.835 µM; on Mcl-1 protein, 4.1e-09 M.

Take `COc1ccccc1CC(Oc1ncnc2sc(-c3cc(F)cc(F)c3)c(-c3ccc(OCCN4CCN(C)CC4)c(Cl)c3C)c12)C(=O)O` [Example 527, (2R)-2-{[(5Sa)-5-{3-chloro-2-methyl-4-[2-(4-methylpiperazin-1-yl)ethoxy]phenyl}-6-(3,5-difluorophenyl)thieno[2,3-d]pyrimidin-4-yl]oxy}-3-(2-methoxyphenyl)propanoic acid]: the half-inhibitory concentration (IC50) in test [1] (Homo sapiens, NCI-H929, 48 h) was found to be 0.272 µM; on Mcl-1 protein, 7.1e-08 M.

As to `COc1cc(F)cc(-c2sc3ncnc(OC(Cc4ccccc4OC)C(=O)O)c3c2-c2ccc(OCCN3CCN(C)CC3)c(Cl)c2C)c1` [Example 528, (2R)-2-{[(5Sa)-5-{3-chloro-2-methyl-4-[2-(4-methylpiperazin-1-yl)ethoxy]phenyl}-6-(3-fluoro-5-methoxyphenyl)thieno[2,3-d]pyrimidin-4-yl]oxy}-3-(2-methoxyphenyl)propanoic acid], the half-inhibitory concentration (IC50) in test [1] (Homo sapiens, NCI-H929, 48 h) came to 0.334 µM; on Mcl-1 protein, 1.6e-08 M.

`COc1ccccc1CC(Oc1ncnc2sc(-c3cc(C)co3)c(-c3ccc(OCCN4CCN(C)CC4)c(Cl)c3C)c12)C(=O)O` [Example 529, (2R)-2-{[(5Sa)-5-{3-chloro-2-methyl-4-[2-(4-methylpiperazin-1-yl)ethoxy]phenyl}-6-(4-methylfuran-2-yl)thieno[2,3-d]pyrimidin-4-yl]oxy}-3-(2-methoxyphenyl)propanoic acid]: the IC50 came out at 0.308 µM in test [1] (Homo sapiens, NCI-H929, 48 h) and 1.3e-08 M on Mcl-1 protein.

`COc1ccccc1CC(Oc1ncnc2sc(-c3cc4sccc4s3)c(-c3ccc(OCCN4CCN(C)CC4)c(Cl)c3C)c12)C(=O)O` [Example 530, (2R)-2-{[(5Sa)-5-{3-chloro-2-methyl-4-[2-(4-methylpiperazin-1-yl)ethoxy]phenyl}-6-(thieno[3,2-b]thiophen-2-yl)thieno[2,3-d]pyrimidin-4-yl]oxy}-3-(2-methoxyphenyl)propanoic acid]: the 50% inhibitory concentration (IC50) in test [1] (Homo sapiens, NCI-H929, 48 h) stood at 1.59 µM; at Mcl-1 protein it was 1.2e-07 M.

Consider `COc1ccccc1CC(Oc1ncnc2sc(-c3ccc(F)c(C(F)(F)F)c3)c(-c3ccc(OCCN4CCN(C)CC4)c(Cl)c3C)c12)C(=O)O` [Example 531, (2R)-2-[(5Sa)-(5-{3-chloro-2-methyl-4-[2-(4-methylpiperazin-1-yl)ethoxy]phenyl}-6-[4-fluoro-3-(trifluoromethyl)phenyl]thieno[2,3-d]pyrimidin-4-yl)oxy]-3-(2-methoxyphenyl)propanoic acid], for which the IC50 in test [1] (Homo sapiens, NCI-H929, 48 h) was found to be 1.22 µM; on Mcl-1 protein, 3.5e-09 M.

Consider `COc1ccccc1CC(Oc1ncnc2sc(-c3ccc(F)c(Cl)c3)c(-c3ccc(OCCN4CCN(C)CC4)c(Cl)c3C)c12)C(=O)O` [Example 532, (2R)-2-{[6-(3-chloro-4-fluorophenyl)-(5Sa)-5-{3-chloro-2-methyl-4-[2-(4-methylpiperazin-1-yl)ethoxy]phenyl}thieno[2,3-d]pyrimidin-4-yl]oxy}-3-(2-methoxyphenyl)propanoic acid], for which the IC50 in test [1] (Homo sapiens, NCI-H929, 48 h) was 0.323 µM; on Mcl-1 protein it was 5.9e-08 M.

As for `COc1ccccc1C[C@@H](Oc1ncnc2sc(-c3ccc(F)c(F)c3)c(-c3ccc(OCCN4CCN(C)CC4)c(Cl)c3C)c12)C(=O)O` [Example 533, (2R)-2-{[(5Sa)-5-{3-chloro-2-methyl-4-[2-(4-methylpiperazin-1-yl)ethoxy]phenyl}-6-(3,4-difluorophenyl)thieno[2,3-d]pyrimidin-4-yl]oxy}-3-(2-methoxyphenyl)propanoic acid], the IC50 in test [1] came out at 0.201 µM; at Mcl-1 protein it was 2.8e-08 M.

In the case of `COc1ccccc1CC(Oc1ncnc2sc(-c3ccc(F)c(O)c3)c(-c3ccc(OCCN4CCN(C)CC4)c(Cl)c3C)c12)C(=O)O` [Example 534, (2R)-2-{[(5Sa)-5-{3-chloro-2-methyl-4-[2-(4-methylpiperazin-1-yl)ethoxy]phenyl}-6-(4-fluoro-3-hydroxyphenyl)thieno[2,3-d]pyrimidin-4-yl]oxy}-3-(2-methoxyphenyl)propanoic acid], the IC50 stood at 0.413 µM in test [1] (Homo sapiens, NCI-H929, 48 h) and 1.6e-08 M on Mcl-1 protein.

Turning to `COc1ccccc1CC(Oc1ncnc2sc(-c3ccc(F)c(OCC(F)(F)F)c3)c(-c3ccc(OCCN4CCN(C)CC4)c(Cl)c3C)c12)C(=O)O` [Example 535, (2R)-2-[(5Sa)-5-{3-chloro-2-methyl-4-[2-(4-methylpiperazin-1-yl)ethoxy]phenyl}-6-[4-fluoro-3-(2,2,2-trifluoroethoxy)phenyl]thieno[2,3-d]pyrimidin-4-yl)oxy]-3-(2-methoxyphenyl)propanoic acid], the half-inhibitory concentration (IC50) in test [1] (Homo sapiens, NCI-H929, 48 h) worked out at 1.84 µM; at Mcl-1 protein it was 1.3e-07 M.

Take `COc1ccccc1C[C@@H](Oc1ncnc2sc(-c3ccc(F)c(Cl)c3F)c(-c3ccc(OCCN4CCN(C)CC4)c(Cl)c3C)c12)C(=O)O` [Example 536, (2R)-2-{[6-(3-chloro-2,4-difluorophenyl)-(5Sa)-5-{3-chloro-2-methyl-4-[2-(4-methylpiperazin-1-yl)ethoxy]phenyl}thieno[2,3-d]pyrimidin-4-yl]oxy}-3-(2-methoxyphenyl)propanoic acid]: the values for the IC50 (in test [1]; on Mcl-1 protein) were 0.797 µM and 7.7e-08 M, respectively.

As for `COc1ccccc1CC(Oc1ncnc2sc(-c3ccc(C)cc3)c(-c3ccc(OCCN4CCN(C)CC4)c(Cl)c3C)c12)C(=O)O` [Example 538, (2R)-2-{[(5Sa)-5-{3-chloro-2-methyl-4-[2-(4-methylpiperazin-1-yl)ethoxy]phenyl}-6-(4-methylphenyl)thieno[2,3-d]pyrimidin-4-yl]oxy}-3-(2-methoxyphenyl)propanoic acid], the concentration for half-maximal inhibition (IC50) was 0.672 µM in test [1] (Homo sapiens, NCI-H929, 48 h) and 4.7e-08 M on Mcl-1 protein.

Regarding `COc1ccccc1CC(Oc1ncnc2sc(-c3ccc(Cl)cc3)c(-c3ccc(OCCN4CCN(C)CC4)c(Cl)c3C)c12)C(=O)O` [Example 539, (2R)-2-{[(5Sa)-5-{3-chloro-2-methyl-4-[2-(4-methylpiperazin-1-yl)ethoxy]phenyl}-6-(4-chlorophenyl)thieno[2,3-d]pyrimidin-4-yl]oxy}-3-(2-methoxyphenyl)propanoic acid], the IC50 in test [1] (Homo sapiens, NCI-H929, 48 h) was 0.731 µM; on Mcl-1 protein, 7.2e-08 M.

In the case of `COc1ccccc1CC(Oc1ncnc2sc(-c3ccc(F)cc3F)c(-c3ccc(OCCN4CCN(C)CC4)c(Cl)c3C)c12)C(=O)O` [Example 540, (2R)-2-{[(5Sa)-5-{3-chloro-2-methyl-4-[2-(4-methylpiperazin-1-yl)ethoxy]phenyl}-6-(2,4-difluorophenyl)thieno[2,3-d]pyrimidin-4-yl]oxy}-3-(2-methoxyphenyl)propanoic acid], the IC50 in test [1] (Homo sapiens, NCI-H929, 48 h) was determined as 0.311 µM; at Mcl-1 protein, 3.2e-09 M.

Turning to `COc1ccccc1CC(Oc1ncnc2sc(-c3ccc(C)o3)c(-c3ccc(OCCN4CCN(C)CC4)c(Cl)c3C)c12)C(=O)O` [Example 541, (2R)-2-{[(5Sa)-5-{3-chloro-2-methyl-4-[2-(4-methylpiperazin-1-yl)ethoxy]phenyl}-6-(5-methylfuran-2-yl)thieno[2,3-d]pyrimidin-4-yl]oxy}-3-(2-methoxyphenyl)propanoic acid], the IC50 in test [1] (Homo sapiens, NCI-H929, 48 h) was 0.329 µM; at Mcl-1 protein, 2.9e-08 M.

On to `CCc1ccc(-c2sc3ncnc(OC(Cc4ccccc4OC)C(=O)O)c3c2-c2ccc(OCCN3CCN(C)CC3)c(Cl)c2C)o1` [Example 543, (2R)-2-{[(5Sa)-5-{3-chloro-2-methyl-4-[2-(4-methylpiperazin-1-yl)ethoxy]phenyl}-6-(5-ethylfuran-2-yl)thieno[2,3-d]pyrimidin-4-yl]oxy}-3-(2-methoxyphenyl)propanoic acid], for which the IC50 in test [1] (Homo sapiens, NCI-H929, 48 h) was found to be 0.766 µM; on Mcl-1 protein, 4.2e-08 M.
